The values below come from US20190216786A1, “USE OF 2-{4-[(4-{[1-CYCLOPROPYL-3-TETRAHYDRO-2H-PYRAN-4-yl)-1H-PYRAZOL-4yl]OXY} PYRIDINE-2-yl)AMINO]PYRIDIN-2-yl}PROPAN-2-OL IN THE TREATMENT OF CANCER” (Eli Lilly and Company, priority 2016, published 2019).

Data set [1] can be described thus: 3-month intermittent-dosing toxicology study in rats. The data set is classed as in vivo. From the text: (§1) Due to the cardiac effects observed with daily dosing in preclinical models, intermittent-dosing toxicology studies administering 2-{4-[(4-{[1-cyclopropyl-3-(tetrahydro-2H-pyran-4-yl)-1H-pyrazol-4-yl]oxy}pyridin-2-yl)amino]pyridin-2-yl}propan-2-ol 4-methylbenzenesulfonate for 3 months in dogs and rats were completed to support clinical dosing. The two dosing schedules evaluated were 2 weeks of daily dosing followed by 2 weeks of no dosing (2 weeks on/2 weeks off) or 3 weeks of daily dosing followed by 1 week of no-dosing (3 weeks on/1 week off). […] Margins of safety based on the NOAELs for the 3-month studies support the proposed clinical dose range of 10 to 100 mg in patients.

The nature of another data set: in vivo. The conditions noted are these: dog. More on the design: species or system dogs.
Source text: as §1

SMILES strings stand for the structures.

For the molecule `CC(C)(O)c1cc(Nc2cc(Oc3cn(C4CC4)nc3C3CCOCC3)ccn2)ccn1` [2-{4-[(4-{[1-cyclopropyl-3-(tetrahydro-2H-pyran-4-yl)-1H-pyrazol-4-yl]oxy}pyridin-2-yl)amino]pyridin-2-yl}propan-2-ol 4-methylbenzenesulfonate], the cardiac effects result in data set [1] (rat, 12 mg/kg, 3 cycles of the 3-week-on/1-week-off schedule) is “limited to aortic inflammation and degeneration in a single female animal”. In addition, the “compound-related, adverse effects” value in data set [1] (rats, 3 months, 2-week on/2-week-off dosing schedule) is listed as “no compound-related, adverse effects detected”. In the data set “in vivo”, the NOAEL at 3 months came out at 7.5 mg/kg and the adverse effects result was “no adverse effects”.

Broadly, the NOAEL is the highest dose or exposure tested at which no adverse effect was seen.
